From patent US5480905A, “Benzodioxane derivatives” (Chugai Seiyaku Kabushiki Kaisha, priority 1991, dated 1996)
Counter-ions that a name gives are not always drawn.

Legend:
S.D. line male rats [1] = assay: Antidepressant effect, compelled swim test (Porsolt), time over which rats remain motionless; format: in vivo, rat; conditions: peroral 20 mg/kg; for inhibition in vivo at 20 mg/kg: Rattus norvegicus, po, 0.5 h, 30 min before swim, read-out: Antidepressant effect, Efficacy
Description: An antidepression test was conducted in accordance with the method of Porsolt et al. (Europ. J. Pharmacol., 47, 379-391, 1978). Stated more specifically, 7-wk old S.D. line male rats were placed in a glass cylinder (18 cm^.phi. ×40 cm^H) for 15 min. The cylinder was filled with water (25° C.) to a depth of 15 cm. Thereafter, the rats were placed in a hot environment (32° C.) for 15 min before they were returned to the cage. Twenty-four hours later, the rats were compelled again to swim in the same cylinder for 5 min and the total time over which the rats remained motionless was measured. A test drug was administered perorally to each animal 30 min before it was compelled to swim for 5 min. Antidepressant agents are known to be capable of specifically reducing the time over which the rats would remain motionless (Psyehopharmaeol., 83, 1-16, 1984, and ibid., 94, 147-160, 1988). The antidepressant effect was calculated by the following formula: [formula]
(§1) The procedure of Test Examples 2 and 3 were repeated except that test compounds were administered perorally in a dose of 10 mg/kg.
(§2) The procedures of Test Example 2 and 3 were repeated, except that test compounds were administered perorally in a dose of 20 mg/kg to check the longevity of their antianxiety and antidepressant effects for 0.5, 2 and 4 h.

serotonin 2 receptor = molecular target: T1, serotonin 2 receptor (Rattus norvegicus, UniProt P14842); assay: Serotonin 2 receptor binding experiment (3H-ketancerine); conditions: rat cortex and hippocampal tissue; 0.5 nM 3H-ketancerine; IC50 in M; read-out: -logIC50 5-HT2 (converted)
T1 construct: the cortex and hippocampal tissue were extracted from the brain; from tissue; host or cells: brain cortex and hippocampus of 7-week-old male S.D. rats, washed membrane homogenate
Description: (§3) Affinity for intracerebral serotonin 1A and serotonin 2 receptor was checked in accordance with the method of Hall et al. (J. Neurochem., 44, 1685-1695, 1985) and the method of Leysen et al. (Mol. Pharmacol., 21, 301-314, 1982).
(§4) Stated more specifically, the cortex and hippocampal tissue were extracted from the brain of 7-wk old S.D. line male rats, mixed with 20 volumes of Tris-HCl buffer (50 mM, pH 7.7) and homogenized with a Teflon homogenizer. Thereafter, the homogenate was centrifuged at 39800×g for 20 min and the supernatant was discarded. Forty volumes of a buffer were added to the precipitate and the mixture was homogenized with a Polytron homogenizer, with the homogenate being centrifuged under the same condition as set forth above. The same procedure was repeated two more times and the final precipitate was homogenized with 40 volumes of a buffer; thereafter, the homogenate was stored at least overnight at -80° C. On the day when binding experiments were to be conducted, the homogenate was thawed at room temperature and incubated at 37° C. for 20 min to remove the endogenous serotonin.
(§5) Thereafter, centrifugation was conducted at 39800×g for 20 min and 40 volumes of a buffer were added to the precipitate, followed by homogenization. This procedure was repeated three times; to the final precipitate, a buffer was added in 65 volumes for the case of serotonin 1A receptor and in 80 volumes for the case of serotonin 2 receptor and the mixture was homogenized in preparation for the binding experiments that are described below. All procedures of experimentation except storage in a frozen state and thawing at room temperature were conducted at 4° C. or below.
A reaction solution containing 0.5 nM (final concentration) of ^3 H-ketancerine and 500 μl of brain homogenate in 1.0 ml (final volume) of a buffer was incubated at 30° C. for 30 min. Subsequent procedures were the same as in the serotonin 1A receptor binding experiment and IC50 (M) was determined accordingly. To determine the amount of specific binding, the amount of binding in the presence of excess unlabelled methysergide ([…]) was subtracted from the total amount of binding.

S.D. line male rats [2] = assay: Antianxiety effect, water drinking under punishment (Vogel); format: in vivo, rat; set-up: Antianxiety effect / Antianxiety effect, longevity: unit not given here; conditions: for change in vivo at 20 mg/kg: Rattus norvegicus, po, read-out: Antianxiety effect, Efficacy
Description: Antianxiety test was conducted in accordance with a method adapted from the method of Vogel et al. (Psychopharmacol., 21, 1-7, 1971). Stated more specifically, S.D. line male rats weighing 250-300 g were entirely kept from water for 24 h and then placed in a concrete experimental box. […] The bottom of the box was made of a stainless steel grid, from which electric shock (0.2 mA, 0.5 sec) could be applied to the limbs of rats. The test schedule was as follows: first, the rats were acclimatized to the experimental box and trained for drinking water; this was done for 3 min without electric shock. The quantity of water drunk by the rats was then measured (under non-punishment). Then, the rats were kept from drinking water for 24 h. Thereafter, the quantity of water drunk by each rat was measured (before administration of test compound) under such conditions that an electric shock was applied each time a rat drank one water drop (under punishment).Thirty minutes later, a test drug was administered perorally and after an additional 20 min, the quantity of water drunk by each rat was again measured under punishment (after administration of test compound). The quantity of water drunk by rats will decrease under punishment but it is known that the initial level can be restored by administering an antianxiety agent.
The antianxiety effect of a test compound was calculated by the following formula: [formula]
as §1, §2

serotonin 1A receptor = molecular target: T2, serotonin 1A receptor (Rattus norvegicus, UniProt P19327); assay: Serotonin 1A receptor binding experiment (3H-8-OH-DPAT); conditions: rat cortex and hippocampal tissue; 0.5 nM 3H-8-OH-DPAT; IC50 in M; read-out: -logIC50 5-HT1A (converted)
T2 construct: the cortex and hippocampal tissue were extracted from the brain; from tissue; host or cells: brain cortex and hippocampus of 7-week-old male S.D. rats, washed membrane homogenate
T2 sequence (P19327 1-422): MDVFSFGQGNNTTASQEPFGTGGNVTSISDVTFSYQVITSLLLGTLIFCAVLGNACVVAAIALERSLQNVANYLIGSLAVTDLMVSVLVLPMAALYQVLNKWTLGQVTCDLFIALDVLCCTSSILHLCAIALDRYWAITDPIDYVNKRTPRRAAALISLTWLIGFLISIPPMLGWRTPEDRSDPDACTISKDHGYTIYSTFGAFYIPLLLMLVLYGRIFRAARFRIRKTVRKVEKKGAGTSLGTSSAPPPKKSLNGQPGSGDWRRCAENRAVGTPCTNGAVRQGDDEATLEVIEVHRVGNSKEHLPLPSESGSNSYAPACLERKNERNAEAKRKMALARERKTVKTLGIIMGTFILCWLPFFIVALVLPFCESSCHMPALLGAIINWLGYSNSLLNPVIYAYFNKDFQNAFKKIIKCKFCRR
Description: as §3, §4, §5
A reaction solution containing 0.5 nM (final concentration) of 3H-8-hydroxy-2-(di-n-propylamino)tetralin (8-OH-DPAT), […] and 500 μl of brain homogenate in 1.0 ml (final volume) of a buffer was incubated at 25° C. for 30 min. Thereafter, the reaction solution was filtered by rapid passage through a glass filler. The filter was washed rapidly with an ice-cooled buffer (3 ml) three times, put into a scintillation vial together with a scintillation cocktail, and left to stand overnight at 4° C. On the next day, the vial was agitated well and measurements were conducted with a scintillation counter. To determine the amount of specific binding, the amount of binding in the presence of excess unlabeled serotonin (10 μM) was subtracted from the total amount of binding. As an index for the affinity of a test compound for either receptor, the concentration at which the specific binding of ^3 H-DPAT was inhibited by 50% (IC50, M) was determined using computer software EBDA/LIGAND (Biosoft).

T1 sequence (P14842 whole entry): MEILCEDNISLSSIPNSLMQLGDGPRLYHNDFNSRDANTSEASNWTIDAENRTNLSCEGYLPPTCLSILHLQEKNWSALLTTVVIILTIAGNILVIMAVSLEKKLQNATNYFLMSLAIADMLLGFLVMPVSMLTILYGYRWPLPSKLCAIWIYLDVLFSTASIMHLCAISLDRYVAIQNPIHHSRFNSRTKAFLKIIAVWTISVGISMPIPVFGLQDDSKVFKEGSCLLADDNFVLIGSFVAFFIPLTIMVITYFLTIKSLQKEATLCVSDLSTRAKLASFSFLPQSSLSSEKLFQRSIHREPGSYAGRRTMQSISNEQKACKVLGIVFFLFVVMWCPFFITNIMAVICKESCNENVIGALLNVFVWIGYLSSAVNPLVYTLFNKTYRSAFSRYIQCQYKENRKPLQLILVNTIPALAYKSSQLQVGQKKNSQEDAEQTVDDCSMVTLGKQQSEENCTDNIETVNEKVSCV

## O=C(NCCNCC1COc2cccc(O)c2O1)C12CC3CC(CC(C3)C1)C2 (centres unmarked) [Compound 18, N-{[2-(8-hydroxy-1,4-benzodioxan-2ylmethyl)amino]ethyl}tricyclo[^3,3,1,1^3, ^7]decane-1-carboxyamide]
S.D. line male rats [1]
  inhibition in vivo at 20 mg/kg: 78.5 ± 4.5%
  Antidepressant effect: better antidepressant effects than WY-50324
Serotonin 2 receptor
  IC50: 0.0501 µM
S.D. line male rats [2]; peroral 20 mg/kg
  change in vivo at 20 mg/kg: 80.1 ± 6.1%
  Antianxiety effect: better effects than MDL-73005
Serotonin 1A receptor
  IC50: 0.000158 µM

## O=C(NCCNCC1COc2c(O)cccc2O1)C12CC3CC(CC(C3)C1)C2 (centres unmarked) [Compound 19, N-{[2-(5-hydroxy-1,4-benzodioxan-2ylmethyl)amino]ethyl)tricyclo[3,3,1,1^3, ^7]decane-1-1-carboxyamide]
Serotonin 2 receptor
  IC50: 1 µM
Serotonin 1A receptor
  IC50: 0.00631 µM

## Cc1ccc2c(c1)OCC(CNCCNC(=O)C13CC4CC(CC(C4)C1)C3)O2 (centres unmarked) [Compound 3, N-{[2-(6-methyl-1,4-benzodioxan-2ylmethyl)amino]ethyl}tricyclo[3,3,1,1^3, ^7]decane-1-carboxyamide]
S.D. line male rats [1]
  inhibition in vivo at 20 mg/kg: 56.8 ± 9%
  Antidepressant effect: almost comparable effects to WY-50324
Serotonin 2 receptor
  IC50: 0.0234 µM
S.D. line male rats [2]; peroral 20 mg/kg
  change in vivo at 20 mg/kg: 63.9 ± 6.8%
  Antianxiety effect: comparable effects to MDL-73005
Serotonin 1A receptor
  IC50: 0.00251 µM

## Cc1cc(C)c2c(c1)OCC(CNCCNC(=O)C13CC4CC(CC(C4)C1)C3)O2 (centres unmarked) [Compound 20, N-{[2(6,8-dimethyl-1,4-benzodioxan-2ylmethyl)amino]ethyl)tricyclo[3,3,1,1^3, ^7]decane-1-carboxyamide]
Serotonin 2 receptor
  IC50: 0.2 µM
Serotonin 1A receptor
  IC50: > 0.0316 µM

## CCCN(CCNC(=O)C12CC3CC(CC(C3)C1)C2)CC1COc2cccc(C)c2O1 (centres unmarked) [Compound 10]
Serotonin 2 receptor
  IC50: 0.631 µM
Serotonin 1A receptor
  IC50: 0.01 µM

## Nc1ccc2c(c1)OC(CNCCNC(=O)C13CC4CC(CC(C4)C1)C3)CO2 (centres unmarked) [Compound 12, N-{[2-(7-amino-1,4-benzodioxan-2-ylmethyl)amino]ethyl}tricyclo[3,3,1,1^3, ^7]decane-1-carboxyamide]
S.D. line male rats [1]
  inhibition in vivo at 20 mg/kg: 57 ± 5.9%
  Antidepressant effect: almost comparable effects to WY-50324
Serotonin 2 receptor
  IC50: 0.2 µM
S.D. line male rats [2]; peroral 10 mg/kg
  Antianxiety effect: 52.1 ± 2.5
S.D. line male rats [2]; peroral 10 mg/kg, Table 6
  Antianxiety and antidepressant effects: superiority
Serotonin 1A receptor
  IC50: 0.000398 µM

## CC(C)Cc1ccc2c(c1)OC(CNCCNC(=O)C13CC4CC(CC(C4)C1)C3)CO2 (centres unmarked) [Compound 13, N-{[2-(7-isobutyl-1,4-benzodioxan-2ylmethyl)amino]ethyl}tricyclo[3,3,1,1^3, ^7]decane-1-carboxyamide]
Serotonin 2 receptor
  IC50: 0.316 µM
Serotonin 1A receptor
  IC50: 0.0631 µM

## O=C(NCCNCC1COc2cc(O)ccc2O1)C12CC3CC(CC(C3)C1)C2 (centres unmarked) [Compound 16, N-{[2-(6-hydroxy-1,4-benzodioxan-2ylmethyl)amino]ethyl}tricyclo[3,3,1,1^3, ^7]decane-1-carboxyamide]
Serotonin 2 receptor
  IC50: 0.158 µM
S.D. line male rats [2]; peroral 20 mg/kg
  change in vivo at 20 mg/kg: 46.5 ± 4.7%
  Antianxiety effect: almost comparable effects to WY-50324
Serotonin 1A receptor
  IC50: 0.00251 µM

## COc1ccc2c(c1)OC(CNCCNC(=O)C13CC4CC(CC(C4)C1)C3)CO2 (centres unmarked) [Compound 14, N-{[2-(7-methoxy-1,4-benzodioxan-2-ylmethyl)amino]ethyl}tricyclo[3,3,1,1^3, ^7]decane-1-carboxyamide]
S.D. line male rats [1]
  inhibition in vivo at 20 mg/kg: 46.9 ± 7.1%
Serotonin 2 receptor
  IC50: 0.0251 µM
Serotonin 1A receptor
  IC50: 0.000398 µM

## CC(=O)c1cccc2c1OC(CNCCNC(=O)C13CC4CC(CC(C4)C1)C3)CO2 (centres unmarked) [Compound 15, N-{[2-(8-acetyl-1,4benzodioxan-2ylmethyl)amino]ethyl}tricyclo[3,3,1,1^3, ^7]decane-1-carboxyamide]
Serotonin 2 receptor
  IC50: 0.0631 µM
Serotonin 1A receptor
  IC50: 0.00316 µM

## C=CCN(CCNC(=O)C12CC3CC(CC(C3)C1)C2)CC1COc2cccc(C)c2O1 (centres unmarked) [Compound 9, N-{[2-(8-methyl-1,4-benzodioxan-2-ylmethyl)allylamino]ethyl}tricyclo[3,3,1^3, ^7]decane-1-carboxyamide]
Serotonin 2 receptor
  IC50: 1 µM
Serotonin 1A receptor
  IC50: 0.00398 µM

## O=C(NCCNCC1COc2ccc(O)cc2O1)C12CC3CC(CC(C3)C1)C2 (centres unmarked) [Compound 17, N-{[2-(7-hydroxy-1,4-benzodioxan-2ylmethyl)amino]ethyl}tricyclo[3,3,^3, ^7]decane-1-carboxyamide]
Serotonin 2 receptor
  IC50: 0.251 µM
S.D. line male rats [2]; peroral 20 mg/kg
  change in vivo at 20 mg/kg: 66.6 ± 8.7%
  Antianxiety effect: comparable effects to MDL-73005
Serotonin 1A receptor
  IC50: 0.000251 µM

## Cc1ccc(C)c2c1OCC(CNCCNC(=O)C13CC4CC(CC(C4)C1)C3)O2 (centres unmarked) [Compound 11, N-{[2-(5,8-dimethyl-1,4-benzodioxan-2-ylmethyl)amino]ethyl}tricyclo[3,3,1^3, ^7]decane-1-carboxyamide]
Serotonin 2 receptor
  IC50: 0.0794 µM
Serotonin 1A receptor
  IC50: 0.00398 µM

## Cc1cccc2c1OC(CN(CCNC(=O)C13CC4CC(CC(C4)C1)C3)Cc1ccccc1)CO2 (centres unmarked) [Compound a, N-{[2-(8-methyl 1,4-benzodioxan-2-ylmethyl)benzylamino]ethyl}tricyclo[3,3,1,^3, ^7]decane-1-carboxyamide]
Serotonin 2 receptor
  IC50: > 1 µM
Serotonin 1A receptor
  IC50: 0.158 µM

## Cc1cccc2c1OC(CNCCNC(=O)C13CC4CC(CC(C4)C1)C3)CO2 (single isomer, unassigned; (+)) [Compound 8, (+)-N-{[2-(8-methyl-1,4-benzodioxan-2ylmethyl)amino]ethyl}tricyclo[3,3,1,1^3, ^7]decane-1-carboxyamide hydrochloride]
Serotonin 2 receptor
  IC50: 0.0501 µM
Serotonin 1A receptor
  IC50: 0.00631 µM
